± gives the expanded uncertainty stated by the source.
Details: Liquid, Vibrating tube method

CCCCOC(=O)C(C)O (stereo not given) [butyl 2-hydroxypropanoate]
mass density [kg/m3]
Details	100 kPa	2500 kPa	5000 kPa	7500 kPa	10000 kPa	20000 kPa	30000 kPa	40000 kPa	50000 kPa	60000 kPa
283.15 K	992.75 ± 0.83	994.4 ± 0.83	996.14 ± 0.83	997.77 ± 0.84	999.41 ± 0.84	1005.87 ± 0.85	1011.69 ± 0.87	1017.42 ± 0.9	1022.85 ± 0.93	1027.71 ± 0.96
288.15 K	987.86 ± 0.82	989.52 ± 0.83	991.32 ± 0.83	993.09 ± 0.83	994.7 ± 0.83	1001.18 ± 0.84	1007.12 ± 0.86	1012.83 ± 0.88	1018.14 ± 0.91	1023.26 ± 0.94
293.15 K	982.96 ± 0.82	984.69 ± 0.82	986.5 ± 0.82	988.29 ± 0.83	990.02 ± 0.83	996.69 ± 0.84	1002.96 ± 0.85	1008.73 ± 0.87	1014.33 ± 0.89	1019.37 ± 0.92
298.15 K	977.96 ± 0.81	979.83 ± 0.82	981.74 ± 0.82	983.49 ± 0.82	985.26 ± 0.83	992.04 ± 0.83	998.37 ± 0.84	1004.29 ± 0.85	1009.82 ± 0.88	1015.17 ± 0.9
303.15 K	973.09 ± 0.81	974.98 ± 0.81	976.81 ± 0.81	978.72 ± 0.82	980.54 ± 0.82	987.67 ± 0.83	993.96 ± 0.84	1000.06 ± 0.84	1005.69 ± 0.86	1011.27 ± 0.89
308.15 K	967.74 ± 0.8	970.01 ± 0.8	971.95 ± 0.81	973.85 ± 0.81	975.59 ± 0.82	982.84 ± 0.83	989.43 ± 0.84	995.62 ± 0.84	1001.41 ± 0.84	1007.05 ± 0.87
313.15 K	963.05 ± 0.79	965.11 ± 0.8	967.03 ± 0.8	969.06 ± 0.81	970.96 ± 0.81	978.27 ± 0.83	985.03 ± 0.84	991.43 ± 0.84	997.35 ± 0.84	1002.99 ± 0.85
318.15 K	957.98 ± 0.79	960.06 ± 0.79	962.11 ± 0.8	964.16 ± 0.81	966.04 ± 0.81	973.62 ± 0.83	980.42 ± 0.84	986.96 ± 0.84	993.12 ± 0.84	998.83 ± 0.84
323.15 K	952.44 ± 0.78	954.61 ± 0.79	956.73 ± 0.79	958.74 ± 0.8	960.79 ± 0.81	968.64 ± 0.82	975.86 ± 0.84	982.37 ± 0.84	988.47 ± 0.85	994.3 ± 0.84
328.15 K	947.31 ± 0.78	949.44 ± 0.78	951.63 ± 0.79	953.79 ± 0.8	955.86 ± 0.8	963.73 ± 0.82	971.08 ± 0.84	977.8 ± 0.85	984.21 ± 0.85	990.17 ± 0.85
333.15 K	942.28 ± 0.77	944.52 ± 0.78	946.72 ± 0.79	948.91 ± 0.79	951.02 ± 0.8	959.28 ± 0.82	966.7 ± 0.84	973.8 ± 0.85	980.2 ± 0.85	986.43 ± 0.85
338.15 K	937.09 ± 0.76	939.39 ± 0.77	941.78 ± 0.78	943.99 ± 0.79	946.05 ± 0.79	954.42 ± 0.82	962.07 ± 0.84	969.19 ± 0.85	975.64 ± 0.86	982.05 ± 0.86

— the NIST ThermoML archive (doi:10.1016/j.jct.2012.11.002)
